In patent publication US5338830A, “Biologically active peptide derived from chicken (chicken CNP)” (Suntory Limited, priority 1990, dated 1994):
Entries after “also recorded” stand apart in the source; their conditions may differ. Like-named read-outs stand apart in the source and are kept apart here. Where a SMILES comes first, the peptide text is derived from it. Bridges are numbered along the chain shown (N, C = ends). Where no end group is shown, it is not given here.

How the values were obtained:
Male SD rats [1] = experiment: Diuretic and natriuretic action in anesthetized rats (urine amount, electrolyte excretion); assay type: in vivo, rat; conditions: for excretion Cl- / excretion K+ / excretion Na+ / excretion urine: urine 15 min after versus before, Mean±S.E.M.
Experimental: (§1) Diuretic action of cCNP was measured in accordance with the method described in […] et al and Sudoh et al ([…]. et al., Biochem. Biophys. Res. Commun., 118, 131-139, 1984; Sudoh, […]., Minamino, N. and Matsuo, H. Nature, 322, 78-81, 1988). Male SD rats (weight 300-400 g) were anesthetized by intraperitoneally receiving 50 mg/kg pentobarbitol, and a tracheal cannula (PE-240, Cray Adams) was provided to secure an airway. A cannula for measuring the blood pressure (PE-50) was inserted into one of the femoral arteries, and Ringer solution was injected through a cannula (PE-10) inserted into the femoral venous, at a constant rate of 1.8 ml/hr. Urine was collected into a test tube through a bladder cannula of silastic tube (inside diameter 0.02 inch, outside diameter 0.037 inch, Dow Corning). The collection of urine was carried out for 15 min before the administration of the peptides, at 5 min intervals after the administration till 15 min, and then at appropriate time intervals. The effect of the peptides was measured by comparing the amount of the urine samples and the concentration of the electrolyte in the urine samples, as well as by the change of the blood pressure. In the above assay, a predetermined amount of cCNP was dissolved in 0.1N acetic acid, and neutralized with one tenth volume of 1.3M Tris solution. Then, the solution was diluted with 50 μl of a sterile physiological water, and administered through the cervical vein. […] In Table 2, diuretic and natriuretic responses are shown in terms of the amount of the urine, the percentages in the […] of the excretion of Na^+, K^+ and Cl^- (Means±S.E.M.), in which urine samples were collected separately over 15 min before and after the intravenous injection of the peptides to anesthetized rats. Three to six rats were used for each peptide. […] In a typical experiment, the blood pressure at the contract phase of heart was decreased by about 5% over a period of 30 min by the action of 30 μg/kg of cCNP. […] Biochem. Biophys. Res. Commun., 168, 863-870, 1990).

Male SD rats [2] = experiment: Vasodepressor activity (change of blood pressure) in anesthetized rats; assay type: in vivo, rat
Experimental: as §1

chicken rectum = tested on: chicken rectum
Experimental: Relaxant activity in chicken rectum was measured in accordance with the method of […] and Currie ([…]. and Matsuo, H., Biochem. Biophys. Res. Commun., 118, 131-139, 1984; Currie, […]., Cole, […]. and Needleman, P. Science, 221, 71-73, 1983). The values are averages of six repeats. […] Although cCNP lacked the tail sequence at the C-terminal which had been considered to be important for analog peptides in displaying biological activities such as diuretic action (Watanabe, T. X., Noda, Y., Chino […]. and Imai, M. Eur. J.

[3] = 30 μg/kg intravenous, anesthetized rats
[4] = 90 μg/kg intravenous, anesthetized rats
[5] = 200 μg/kg intravenous, anesthetized rats
[6] = 3.0 μg/kg intravenous, anesthetized rats

## CC[C@H](C)[C@@H]1NC(=O)[C@H](CCCNC(=N)N)NC(=O)[C@H](CC(=O)O)NC(=O)[C@H](CC(C)C)NC(=O)[C@H](CCCCN)NC(=O)[C@H](C(C)C)NC(=O)CNC(=O)[C@H](Cc2ccccc2)NC(=O)[C@@H](NC(=O)[C@H](CO)NC(=O)[C@H](CCCNC(=N)N)NC(=O)[C@H](CO)NC(=O)[C@H](CC(C)C)NC(=O)CN)CSSC[C@@H](C(=O)O)NC(=O)CNC(=O)[C@H](CC(C)C)NC(=O)CNC(=O)[C@H](CO)NC(=O)[C@H](CCSC)NC(=O)[C@H](CO)NC(=O)CNC1=O [cCNP] (H-GLSRSCFGVKLDRIGSMSGLGC-OH; disulfide 6-22)
Male SD rats [1]; [3]
  excretion Cl-: 171 ± 2%
  excretion K+: 145 ± 12%
  excretion Na+: 160 ± 9%
  excretion urine: 153 ± 32%
Male SD rats [1]; [4]
  excretion Cl-: 214 ± 5%
  excretion K+: 163 ± 02%
  excretion Na+: 193 ± 6%
  excretion urine: 261 ± 19%
Male SD rats [1]; [5]
  excretion Cl-: 338 ± 107%
  excretion K+: 174 ± 18%
  excretion Na+: 385 ± 50%
  excretion urine: 293 ± 50%
Male SD rats [1]; anesthetized rats, ratio to α-hANP
  diuretic and natriuretic actions compared to that of α-hANP: about 1/100
Male SD rats [1]; rats
  natriuretic action (in words): natriuretic action; also recorded: increase dose dependently
Male SD rats [2]; [3]
  decrease of blood pressure: 4.4 ± 1.9%
Male SD rats [2]; 30 μg/kg, over a period of 30 min, typical experiment, anesthetized rats
  decrease of the blood pressure at the contract phase of heart: about 5%
Male SD rats [2]; [4]
  decrease of blood pressure: 0.3 ± 2.0%
Male SD rats [2]; [5]
  decrease of blood pressure: 11.5 ± 1.5%
Male SD rats [2]; rats
  vasodepressor activity (in words): weak vasodepressor action; also recorded: vasodepressor activity; also recorded: increase dose dependently
Chicken rectum
  relative activity: 321
Chicken rectum; cCNP versus fANP-21
  relaxant activity higher than fANP-21 (fold): ~5 times
Chicken rectum; cCNP versus α-hANP
  relaxant activity higher than α-hANP (fold): about 2 times

## α-hANP: A-type (atrial) natriuretic peptide used as comparison; activity set to 100 (SLRRSSCFGGRMDRIGAQSGLGCNSFRY; ends and bridges not checked; cysteine pairing not given here; UniProt P01160 124-151, looked up) [reference compound]
Male SD rats [1]; [6]
  excretion Cl-: 362 + 34%
  excretion K+: 220 ± 22%
  excretion Na+: 461 ± 41%
  excretion urine: 414 ± 46%
Male SD rats [2]; [6]
  decrease of blood pressure: 9.0 ± 2.5%
Chicken rectum; relaxant activity of equimolar amount of peptides, activity of hANP = 100, averages of six repeats
  relative activity: 100
